The target of assay [1] is T1, PHFs from htau23 (Homo sapiens, UniProt P10636).
T1 construct: made in house; host or cells: E. coli
Kind of assay: Thioflavine S assay, depolymerisation of pre-formed PHFs, htau23. In kind it is biochemical. How it is done:
(§1) The ThS assay was used to analyse the ability of the five compounds (see Example 4) to depolymerise pre-formed PHFs made from the repeat domain constructs K19 and K18 as well as from isoforms htau23 and htau24, containing 3 or 4 repeats, respectively.
PHFs assembled from the full length three repeat isoform htau23 were also sensitive to disaggregation (FIG. 4C). The DC50 values ranged from 7.0 to 60 μM.
Tau constructs and isoforms K19, K18, hTau23, hTau24 (10 μM) were first aggregated into PHFs for 48 hours in the presence of 2.5 μM heparin (except K18/ΔK280) and the polymers separated from the soluble tau by centrifugation of 1 h at 100,000 g, redissolved and then exposed to the inhibitors overnight at 37° C. at the indicated concentrations (range 0.001-200 μM).

The target in assay [2] is K18/ΔK280 (Homo sapiens, UniProt P10636, DEL598-598). Kind of assay: Thioflavine S assay, inhibition of PHF formation, K18/ΔK280 without heparin. Format: biochemical. An excerpt: All the polymerisation reactions described so far used heparin as a cofactor for inducing PHF assembly because otherwise the process would be impracticably slow (Goedert et al., 1996; Perez et al., 1996). In order to rule out a potential influence of heparin on the efficiency of the compounds the 4-repeat construct K18/ΔK280 which carries one of the mutations observed in frontotemporal dementia (van Swieten et al., 1999) and is capable of polymerising into PHFs without a polyanionic cofactor (von Bergen, 2001) (FIG. 2E) was used. […] The differences in inhibition effects for K18 (with heparin) and K18/ΔK280 (without heparin) could be caused either by a difference in conformation and/or protein-protein interactions, or perhaps by an interaction between the compound and the cofactor heparin.

Assay [3] deals with PHFs from K18/ΔK280. Description: Thioflavine S assay, depolymerisation of pre-formed PHFs, K18/ΔK280 without heparin. In kind it is biochemical, human. As to conditions: ThS fluorescence, PHFs made without heparin. On the procedure: as §1
The higher DC50 values for K18/ΔK280 point to the higher stability of PHFs formed by this mutant.
(§2) Tau constructs and isoforms K19, K18, hTau23, hTau24 (10 μM) were first aggregated into PHFs for 48 hours in the presence of 2.5 μM heparin (except K18/ΔK280) and the polymers separated from the soluble tau by centrifugation of 1 h at 100,000 g, redissolved and then exposed to the inhibitors overnight at 37° C. at the indicated concentrations (range 0.001-200 μM). The compounds are capable of disassembling PHFs with varying efficiencies (see Table 2).

Assay [4] has as its target T2, PHFs from K18 (Homo sapiens, UniProt P10636).
T2 construct: made in house; host or cells: E. coli
Kind of assay: Thioflavine S assay, depolymerisation of pre-formed PHFs, K18. In kind it is biochemical.
Description: as §1
The depolymerisation of K19 filaments (FIG. 4A) followed a similar concentration dependence as the inhibition experiment, with consistently similar or slightly higher DC50 values than the corresponding IC50 concentrations (Table 2). The ratios of IC50/DC50 range from 0.2-1.2. […] Here, too, the concentration dependence for K19 was steeper than for K18 (compare FIGS. 4A, B), similar to that of assembly inhibition (FIGS. 2A, B).
as §2

Assay [5] deals with T3, Aβ1-40 peptide (Homo sapiens, UniProt P05067).
T3 construct: Commercial human Aβ1-40 was obtained from Calbiochem; purchased Calbiochem
Description: Aβ fibre aggregation inhibition (thioflavine T). In kind it is biochemical. As to conditions: 60 μM compound. How it is done: Besides the activity of the compounds towards tau fibres, their specificity is an important issue, i.e. the ability to discriminate between different types of aggregates. Therefore, an analysis of the influence of the compounds (60 μM) on amyloid fibrils made from the Aβ1-40 peptide, both in terms of inhibition of de novo filament formation and depolymerisation was performed (FIGS. 8A-B). These fibres are also abundant in Alzheimer brain and contain a core of cross-β-structure, but are located outside the cells, in contrast to the intracellular PHFs.
Commercial human Aβ1-40 was obtained from Calbiochem (Schwalbach, Germany) and stored at −20° C. The AD peptide was routinely dissolved in 100% DMSO to obtain a 2 mM stock solution, which was subsequently stored frozen at −20° C. 5 μl from the 2 mM Aβ stock solution was added to 90 μl of 25 mM phosphate buffer containing 120 mM NaCl, and 0.02% sodium azide, final pH 7.4 and 5 μl of 100% DMSO so that the final DMSO concentration was 10% v/v, and the protein concentration was adjusted to 100 μM. Incubations were at room temperature. In order to accelerate aggregation tubes were put on a lab shaker and agitated at moderate speed. For analysis 5 μl of this solution were added to 45 μl 10 mM phosphate buffer containing 6 μM thioflavine T, pH 6.0, after 30 minutes incubation at room temperature the fluorescence was measured at 504 nm emission by an excitation of 409 nm. To correlate fibril morphology with the fluorescence signal, aliquots of the Aβ1-40 solutions were simultaneously prepared for electron microscopy. The inhibition of fibril formation and disassembly of pre-formed Aβ-fibrils were carried out in triplicates with 60 μM compound and 10 μM protein.
Aβ peptide 1-40 (10 μM) was incubated with moderate shaking overnight at room temperature and incubated with various compounds (60 μM) overnight.

[6] abbreviates: ThS fluorescence, read-out: Depolymerisation of PHFs DC50, hTau23.
Setting [7] is: ThS fluorescence, read-out: Inhibition of tau aggregation IC50, K18/ΔK280.
Setting [8] is: ThS fluorescence, overnight 37° C., read-out: Depolymerisation of PHFs DC50, K18.

“And” between values parts separate entries of the source, which are not always exact repeats. Equal entries are not always repeated. Where two headings read alike, the source gives them in different places.

The text below walks through data of patent US20060223812A1, “Treating neurodegenerative conditions” (MAX-PLANCK-GESELLSCHAFT ZUR FORDERUNGDER WISSENSCHAFTEN, …, priority 2004, published 2006).

T3 sequence (P05067 672-711): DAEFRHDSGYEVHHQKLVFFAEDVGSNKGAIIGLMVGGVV
T1 sequence (P10636 1-352 isoform P10636-2): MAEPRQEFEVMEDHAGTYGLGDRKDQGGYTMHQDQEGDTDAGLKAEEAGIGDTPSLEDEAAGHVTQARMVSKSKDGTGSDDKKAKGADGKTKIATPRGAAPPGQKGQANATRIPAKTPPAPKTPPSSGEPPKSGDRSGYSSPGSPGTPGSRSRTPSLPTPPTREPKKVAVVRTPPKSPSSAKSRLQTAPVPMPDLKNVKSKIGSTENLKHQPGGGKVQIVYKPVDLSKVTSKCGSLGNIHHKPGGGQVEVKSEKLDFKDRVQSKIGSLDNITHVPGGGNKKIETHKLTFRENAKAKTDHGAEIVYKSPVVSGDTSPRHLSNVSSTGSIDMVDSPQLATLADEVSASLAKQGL
Sequence of K18/ΔK280 (P10636 with tags, fused parts or gaps DEL598-598): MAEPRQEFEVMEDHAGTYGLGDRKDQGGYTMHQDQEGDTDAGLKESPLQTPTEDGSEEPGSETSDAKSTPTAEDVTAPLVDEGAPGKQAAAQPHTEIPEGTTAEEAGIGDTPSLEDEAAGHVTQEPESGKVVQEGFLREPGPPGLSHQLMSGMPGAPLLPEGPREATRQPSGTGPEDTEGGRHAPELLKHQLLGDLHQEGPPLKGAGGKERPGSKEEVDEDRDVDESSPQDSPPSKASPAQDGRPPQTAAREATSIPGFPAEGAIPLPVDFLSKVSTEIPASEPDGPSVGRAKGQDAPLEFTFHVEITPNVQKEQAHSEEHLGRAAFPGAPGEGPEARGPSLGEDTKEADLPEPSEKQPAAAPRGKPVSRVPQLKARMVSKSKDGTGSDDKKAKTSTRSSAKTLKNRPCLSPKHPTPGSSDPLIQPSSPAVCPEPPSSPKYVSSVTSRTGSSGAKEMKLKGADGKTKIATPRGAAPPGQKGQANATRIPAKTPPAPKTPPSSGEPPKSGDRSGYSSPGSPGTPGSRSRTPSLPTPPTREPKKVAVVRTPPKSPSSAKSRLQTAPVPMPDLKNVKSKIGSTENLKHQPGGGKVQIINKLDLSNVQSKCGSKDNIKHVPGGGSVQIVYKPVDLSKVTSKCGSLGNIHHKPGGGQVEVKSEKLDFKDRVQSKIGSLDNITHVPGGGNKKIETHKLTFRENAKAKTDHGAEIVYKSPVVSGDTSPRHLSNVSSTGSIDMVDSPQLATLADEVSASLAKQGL
T2 sequence (P10636 561-685 limits assumed): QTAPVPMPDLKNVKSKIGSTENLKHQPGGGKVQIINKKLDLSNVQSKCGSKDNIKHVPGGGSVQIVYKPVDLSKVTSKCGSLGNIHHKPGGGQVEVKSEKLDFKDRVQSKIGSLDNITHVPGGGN

For the molecule `COc1cccc2c1C(=O)c1c(O)c3c(c(O)c1C2=O)CC(O)(C(=O)CO)CC3OC1CC(N)C(O)C(C)O1` (stereo not drawn) [Adriamycin, 10-(4-Amino-5-hydroxy-6-methyl-tetrahydro-pyran-2-yloxy)-6,8,11-trihydroxy-8-(2-hydroxyethanoyl)-1-methoxy-7,8,9,10-tetrahydro-naphthacene-5,12-dione, reference compound], the DC50 in assay [1] (read-out: Depolymerisation of PHFs DC50, hTau23, ThS fluorescence) was 13.2 µM; in assay [3], 22 µM; in assay [4] (read-out: Depolymerisation of PHFs DC50, K18, ThS fluorescence, overnight 37° C.), 4.3 µM. In assay [2] (Inhibition of tau aggregation IC50, K18/ΔK280, ThS fluorescence), this molecule showed an IC50 of 3.9 µM.
For `COc1cccc2c1C(=O)c1c(O)c3c(c(O)c1C2=O)CC(O)(C(C)=O)CC3OC1CC(N)C(O)C(C)O1` (stereo not drawn) [Daunorubicin, 8-Acetyl-10-(4-amino-5-hydroxy-6-methyl-tetrahydro-pyran-2-yloxy)-6,8,11-trihydroxy-1-methoxy-7,8,9,10-tetrahydro-naphthacene-5,12-dione, reference compound], the values for the DC50 in assay [1] (setting [6]), in assay [3] and in assay [4] (setting [8]) were 8.2 µM, 7.7 µM and 4 µM, respectively. For the same molecule, the IC50 in assay [2] (setting [7]) was 48 µM and 48.1 µM. For the same molecule, in assay [5], the “inhibition of Aβ fibre aggregation” value is recorded as “most efficient”.
`Cc1cc(O)c2c(c1)C(=O)c1cc(O)cc(O)c1C2=O` [Emodin, 1,3,8-Trihydroxy-6-methyl-anthraquinone]: the DC50 was 7 µM in assay [1] (setting [6]), 2.7 µM in assay [3] and 2 µM in assay [4] (setting [8]). Further, in assay [2] (setting [7]), the IC50 was 1.9 µM. Also, the “inhibition of Aβ fibre aggregation” value in assay [5] was “most efficient”.
Turning to `O=C(c1ccccc1)c1ccc(O)c(O)c1O` [PHF005, 1-Phenyl-1-(2,3,4-trihydroxy-phenyl)-methanone], the values for the DC50 in assay [1] (setting [6]), in assay [3] and in assay [4] (setting [8]) were above 60 µM, above 100 µM and 20.8 µM, respectively. The “inhibition of filament formation, K18/ΔK280” value in assay [2] was “failed nearly completely”. Further, the IC50 in assay [2] (setting [7]) was above 60 µM. Besides, in assay [3], the “Depolymerisation of PHFs DC50, K18/ΔK280” value is “not accurately detectable”. For the same molecule, in assay [5] (10 μM Aβ1-40, read-out: inhibition of Aβ filament formation), the inhibition (in general, the share of the control response that was lost under treatment) at 60 µM was around 50%.
Consider `O=C1c2ccc(O)c(O)c2C(=O)c2c(O)ccc(O)c21` [PHF016, 1,2,5,8-Tetrahydroxy-anthraquinone], for which the DC50 was above 60 µM in assay [1] (setting [6]), above 60 µM in assay [3] and 7.3 µM in assay [4] (setting [8]). Further, the IC50 in assay [2] (setting [7]) stood at 1.3 µM. Moreover, in assay [3], the “Depolymerisation of PHFs DC50, K18/ΔK280” value is “not accurately detectable”. Further, in assay [5], the “inhibition of Aβ fibre aggregation” value is “most efficient”.
